# In patent publication US20230082555A1, “Composition for Medium” (Kataoka Corporation, priority 2019, published 2023):
# Test system: human fibroblasts
# Assay: Presence or absence of fatty acids in serum-free induction medium, Ucp1 and Ckmt1 by QRT-PCR (Test Example E)
# Type: cell-based
# Details: brown adipocytes induced from fibroblasts; FIGS. 8 and 9
# Procedure: After the human fibroblasts reached 80% to 90% confluency, the medium in the dish was replaced with SFBAM which is serum-free or SFBAM in which albumin and fatty acid components were changed to the combinations shown in Table 10 of the compounds shown in Table 9, both of which contain all the compounds shown in Table 3, and the human fibroblasts were cultured in said respective media for three weeks (Examples 11 to 14). The medium was changed every three days. Thereafter, the expression amounts of marker genes, Ucp1 and Ckmt1, specific for brown adipose tissue were quantified by QRT-PCR. Symbol 1 (control) in the figures represents the result in SFBAM without the compounds shown in Table 3 necessary for induction into brown adipocytes.
substance,measurement,value
"fatty acid-unbound albumin: Fatty acid-free albumin, in which a fatty acid is removed from an albumin (017-15146, FUJIFILM Wako)",Expression levels of Ucp1 genes versus induction with fatty acid-bound albumin,much higher
